Measurements as given in patent publication US11040035B2, “3-oxo-2,6-diphenyl-2,3-dihydropyridazine-4-carboxamides” (BAYER PHARMA AKTIENGESELLSCHAFT, priority 2016, dated 2021).

biological target: T1, AHR (Homo sapiens, UniProt P35869); assay: In vitro assay 1: antagonism in human cell line (transactivation assay, kynurenic acid prestimulated); details: Assay 1: AHR-luc Hum Antagonism IC50 [M], 150 μM kynurenic acid, 20 hours, firefly luciferase
T1 sequence (P35869 11-848): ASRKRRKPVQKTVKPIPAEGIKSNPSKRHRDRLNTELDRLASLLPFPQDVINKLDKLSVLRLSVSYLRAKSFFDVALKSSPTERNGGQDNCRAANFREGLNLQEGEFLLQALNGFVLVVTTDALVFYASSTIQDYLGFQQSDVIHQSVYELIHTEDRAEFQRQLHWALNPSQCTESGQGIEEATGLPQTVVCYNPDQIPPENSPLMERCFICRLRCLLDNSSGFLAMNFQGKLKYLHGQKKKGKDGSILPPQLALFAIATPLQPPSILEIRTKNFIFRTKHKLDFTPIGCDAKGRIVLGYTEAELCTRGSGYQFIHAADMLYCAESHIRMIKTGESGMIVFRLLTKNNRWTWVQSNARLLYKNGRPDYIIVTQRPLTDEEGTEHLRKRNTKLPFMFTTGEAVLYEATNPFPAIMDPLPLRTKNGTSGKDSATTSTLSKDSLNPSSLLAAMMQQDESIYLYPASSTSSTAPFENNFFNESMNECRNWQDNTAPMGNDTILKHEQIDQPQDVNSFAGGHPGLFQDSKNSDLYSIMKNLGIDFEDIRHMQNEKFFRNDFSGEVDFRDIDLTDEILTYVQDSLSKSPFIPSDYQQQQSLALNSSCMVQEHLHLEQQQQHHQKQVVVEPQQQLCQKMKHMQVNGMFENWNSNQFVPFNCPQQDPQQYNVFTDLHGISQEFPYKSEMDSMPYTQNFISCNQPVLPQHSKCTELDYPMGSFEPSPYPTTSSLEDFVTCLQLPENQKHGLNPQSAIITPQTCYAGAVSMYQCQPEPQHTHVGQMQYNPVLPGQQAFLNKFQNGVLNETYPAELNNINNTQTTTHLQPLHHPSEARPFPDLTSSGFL
Experimental: Transactivation assays were carried out in U87 glioblastoma cells (ATCC) endogenously expressing AHR. In addition the cells were stably transfected with an AHR inducible firefly luciferase reporter gene construct that carried AHR-binding sites (DRE) in its promoter and a renilla reporter gene construct with constitutively active promoter. Kynurenic acid is an endogenous AHR activating ligand and was used to prestimulate test cells prior to testing the antagonistic properties of compounds.
In Vitro Assay 1: Antagonism in Human Cell Line
Cells in medium (tryptophan free RPMI, 1% FCS, 2 mM Glutamine) supplemented with 150 μM kynurenic acid were grown for 20 hours in absence (negative control) or presence of increasing concentrations of test compounds (typical dilutions: 72 pmol/L, 0.25 nmol/L, 0.89 nmol/L; 3.1 nmol/L, 11 nmol/L, 38 nmol/L, 130 nmol/L, 470 nmol/L, 1.6 μmol/L, 5.7 μmol/L and 20 μmol/L in duplicates). As positive inhibition control cells supplemented with 150 μM kynurenic acid were incubated in presence of 5 μM Staurosporin. Normalization was done by positive and negative controls.
Firefly luciferase and Renilla activity was determined by the DualGlo Luciferase Assay System (Promega, #2920).

| IC50 | Structure (SMILES) |
| --- | --- |
| 3.66e-06 M | Cc1ccc(-c2cc(C(=O)N[C@@H](CO)C(C)C)c(=O)n(-c3cccc(F)c3)n2)cc1C [Example 84, 6-(3,4-dimethylphenyl)-2-(3-fluorophenyl)-N-[(2R)-1-hydroxy-3-methylbutan-2-yl]-3oxo-2,3-dihydropyridazine-4-carboxamide] |
| 1.41e-08 M | O=C(NC(CO)C1CCCO1)c1cc(-c2ccc(C(F)(F)F)cc2)nn(-c2cccc(F)c2)c1=O (single isomer, unassigned) [Example 354, 1,4-anhydro-2,3,5-trideoxy-5-[({2-(3-fluorophenyl)-3-oxo-6-[4-(trifluoromethyl)phenyl]-2,3-dihydropyridazin-4-yl}carbonyl)amino]hexitol] |
| 1.81e-07 M | Cc1ccc(-c2cc(C(=O)N[C@H](C)CO)c(=O)n(-c3cccc(F)c3)n2)cc1 [Example 9, 2-(3-Fluorophenyl)-N-[(2R)-1-hydroxypropan-2-yl]-6-(4-methylphenyl)-3-oxo-2,3-dihydropyridazine-4-carboxamide] |
| 5.02e-08 M | O=C(NC(CO)C1CCCO1)c1cc(-c2ccc(Cl)cc2)nn(-c2cccc(F)c2)c1=O (single isomer, unassigned) [Example 319, 1,4-anhydro-5-({[6-(4-chlorophenyl)-2-(3-fluorophenyl)-3-oxo-2,3-dihydropyridazin-4-yl]carbonyl}amino)-2,3,5-trideoxyhexitol] |
| 4.96e-08 M | CC(C)[C@@H](CO)NC(=O)c1cc(-c2ccc(Cl)cc2)nn(-c2cccc(Cl)c2)c1=O [Example 59, 2-(3-Chlorophenyl)-6-(4-chlorophenyl)-N-[(2S)-1-hydroxy-3-methylbutan-2-yl]-3-oxo-2,3-dihydropyridazine-4-carboxamide] |
| 2.82e-07 M | CC(CO)NC(=O)c1cc(-c2ccc(Cl)cc2)nn(-c2ccccc2)c1=O (stereo not shown) [Example 79, 6-(4-chlorophenyl)-N-(1-hydroxypropan-2-yl)-3-oxo-2-phenyl-2,3-dihydropyridazine-4-carboxamide] |
| 2e-08 M | O=C(NC(CO)C1CCCO1)c1cc(-c2ccc(C(F)(F)F)cc2)nn(-c2cccc(F)c2)c1=O (single isomer, unassigned) [Example 353, 1,4-anhydro-2,3,5-trideoxy-5-[({2-(3-fluorophenyl)-3-oxo-6-[4-(trifluoromethyl)phenyl]-2,3-dihydropyridazin-4-yl}carbonyl)amino]hexitol] |
| 6.6e-08 M | CC[C@@H](CO)NC(=O)c1cc(-c2ccc(Cl)cc2)nn(-c2cccc(Cl)c2)c1=O [Example 60, 2-(3-Chlorophenyl)-6-(4-chlorophenyl)-N-[(2S)-1-hydroxybutan-2-yl]-3-oxo-2,3-dihydropyridazine-4-carboxamide] |
| 1.03e-07 M | Cc1ccc(-c2cc(C(=O)NC(CO)C(C)C)c(=O)n(-c3cccc(F)c3)n2)cc1C (stereo not shown) [Example 82, 6-(3,4-dimethylphenyl)-2-(3-fluorophenyl)-N-(1-hydroxy-3-methylbutan-2-yl)-3-oxo-2,3-dihydropyridazine-4-carboxamide] |
| 1.77e-07 M | O=C(NC(CO)C1CCCO1)c1cc(-c2ccc(Cl)cc2)nn(-c2cccc(F)c2)c1=O (single isomer, unassigned) [Example 317, 1,4-anhydro-5-({[6-(4-chlorophenyl)-2-(3-fluorophenyl)-3-oxo-2,3-dihydropyridazin-4-yl]carbonyl}amino)-2,3,5-trideoxyhexitol] |
| 6.06e-08 M | COCCC(CO)NC(=O)c1cc(-c2ccc(C(F)(F)F)cc2)nn(-c2cccc(F)c2)c1=O (single isomer, unassigned; (+)) [Example 332, (+)-2-(3-fluorophenyl)-N-(1-hydroxy-4-methoxybutan-2-yl)-3-oxo-6-[4-(trifluoromethyl)phenyl]-2,3-dihydropyridazine-4-carboxamide] |
| 1.2e-07 M | O=C(NC(CO)C1CCCO1)c1cc(-c2ccc(C(F)(F)F)cc2)nn(-c2cccc(F)c2)c1=O (single isomer, unassigned) [Example 355, 1,4-anhydro-2,3,5-trideoxy-5-[({2-(3-fluorophenyl)-3-oxo-6-[4-(trifluoromethyl)phenyl]-2,3-dihydropyridazin-4-yl}carbonyl)amino]hexitol] |
| 2.11e-06 M | Cc1ccc(-c2cc(C(=O)N[C@@H](CO)C(C)C)c(=O)n(-c3ccccc3)n2)cc1 [Example 72, N-[(2R)-1-hydroxy-3-methylbutan-2-yl]-6-(4-methylphenyl)-3-oxo-2-phenyl-2,3-dihydropyridazine-4-carboxamide] |
| 3e-07 M | CC(CO)NC(=O)c1cc(-c2ccc(Cl)cc2)nn(-c2cccc(Cl)c2)c1=O (stereo not shown) [Example 65, 2-(3-Chlorophenyl)-6-(4-chlorophenyl)-N-(1-hydroxypropan-2-yl)-3-oxo-2,3-dihydropyridazine-4-carboxamide] |
| 3.91e-07 M | Cc1ccc(-c2cc(C(=O)NCCO)c(=O)n(-c3cccc(F)c3)n2)cc1 [Example 19, 2-(3-Fluorophenyl)-N-(2-hydroxyethyl)-6-(4-methylphenyl)-3-oxo-2,3-dihydropyridazine-4-carboxamide] |
| 7.26e-07 M | CC[C@H](CO)NC(=O)c1cc(-c2ccc(C)c(C)c2)nn(-c2cccc(F)c2)c1=O [Example 87, 6-(3,4-dimethylphenyl)-2-(3-fluorophenyl)-N-[(2R)-1-hydroxybutan-2-yl]-3-oxo-2,3-dihydropyridazine-4-carboxamide] |

| Structure (SMILES) | IC50 |
| --- | --- |
| Cc1ccc(-c2cc(C(=O)NCC(O)C(F)(F)F)c(=O)n(-c3cc(F)cc(F)c3)n2)cc1 (single isomer, unassigned) [Example 53, 2-(3,5-Difluorophenyl)-6-(4-methylphenyl)-3-oxo-N-(3,3,3-trifluoro-2-hydroxypropyl)-2,3-dihydropyridazine-4-carboxamide] | 8.85e-09 M |

biological target: T1, AHR; assay: In vitro assay 2: agonism in human cell line (transactivation assay); details: Assay 2: AHR-luc Hum Agonism IC50 [M], no kynurenic acid, 20 hours, firefly luciferase

| IC50 | Structure (SMILES) |
| --- | --- |
| > 2e-05 M | CC(O)C(NC(=O)c1cc(-c2ccc(C(F)(F)F)cc2)nn(-c2cccc(F)c2)c1=O)C(F)(F)F (racemic) [Example 260, 2-(3-Fluorophenyl)-3-oxo-N-[(2RS,3RS)-1,1,1-trifluoro-3-hydroxybutan-2-yl]-6-[4-(trifluoromethyl)phenyl]-2,3-dihydropyridazine-4-carboxamide or 2-(3-fluorophenyl)-3-oxo-N-[(2SR,3RS)-1,1,1-trifluoro-3-hydroxybutan-2-yl]-6-[4-(trifluoromethyl)phenyl]-2,3-dihydropyridazine-4-carboxamide] |
| 6.56e-08 M | CC(C)[C@H](CO)NC(=O)c1cc(-c2ccc(C(F)(F)F)cc2)nn(-c2cccc(F)c2)c1=O [Example 240, 2-(3-Fluorophenyl)-N-[(2R)-1-hydroxy-3-methylbutan-2-yl]-3-oxo-6-[4-(trifluoromethyl)phenyl]-2,3-dihydropyridazine-4-carboxamide] |
| 7.84e-07 M | O=C(NC(CO)C(F)(F)F)c1cc(-c2ccc(C(F)(F)F)cc2)nn(-c2cccc(F)c2)c1=O (racemic) [Example 266, 2-(3-Fluorophenyl)-3-oxo-N-[(2RS)-1,1,1-trifluoro-3-hydroxypropan-2-yl]-6-[4-(trifluoromethyl)phenyl]-2,3-dihydropyridazine-4-carboxamide] |
| > 2e-05 M | CC(NC(=O)c1cc(-c2ccc(Cl)cc2)nn(-c2cccc(F)c2)c1=O)C(O)C(F)(F)F (mixture of isomers) [Example 217, Isomeric mixture no. 1 of 6-(4-chlorophenyl)-2-(3-fluorophenyl)-3-oxo-N-(4,4,4-trifluoro-3-hydroxybutan-2-yl)-2,3-dihydropyridazine-4-carboxamide] |
| > 2e-05 M | O=C(N[C@@H]1CCC[C@@H]1O)c1cc(-c2ccc(Cl)cc2)nn(-c2cccc(F)c2)c1=O [Example 133, 6-(4-Chlorophenyl)-2-(3-fluorophenyl)-N-[(1R,2S)-2-hydroxycyclopentyl]-3-oxo-2,3-dihydropyridazine-4-carboxamide] |
| > 2e-05 M | CC(C)[C@@H](CO)NC(=O)c1cc(-c2ccc(C(F)(F)F)cc2)nn(-c2cccc(F)c2)c1=O [Example 239, 2-(3-Fluorophenyl)-N-[(2S)-1-hydroxy-3-methylbutan-2-yl]-3-oxo-6-[4-(trifluoromethyl)phenyl]-2,3-dihydropyridazine-4-carboxamide] |

| Structure (SMILES) | IC50 |
| --- | --- |
| Cc1ccc(-c2cc(C(=O)NCC(O)C(F)(F)F)c(=O)n(-c3cc(F)cc(F)c3)n2)cc1 (single isomer, unassigned) [Example 53, 2-(3,5-Difluorophenyl)-6-(4-methylphenyl)-3-oxo-N-(3,3,3-trifluoro-2-hydroxypropyl)-2,3-dihydropyridazine-4-carboxamide] | > 2e-05 M |

same assay, conditions: read-out: Assay 2: AHR-luc Hum Agonism IC50, no kynurenic acid, 20 hours, firefly luciferase

| IC50 | Structure (SMILES) |
| --- | --- |
| > 2e-05 M | CC(C)(O)C(NC(=O)c1cc(-c2ccc(C(F)(F)F)cc2)nn(-c2cccc(F)c2)c1=O)C(F)(F)F (single isomer, unassigned; (+)) [Example 395, (+)-2-(3-fluorophenyl)-3-oxo-N-(1,1,1-trifluoro-3-hydroxy-3-methylbutan-2-yl)-6-[4-(trifluoromethyl)phenyl]-2,3-dihydropyridazine-4-carboxamide] |
